Read-outs that look alike come from different tables or passages of the source.
Legend:
[1] = target: T1, complement C5a receptor 1 (C5aR1) (Homo sapiens, UniProt P21730); assay: β-arrestin recruitment via C5aR1 activation in live CHO-K1 cells (PathHunter), antagonist mode; type: cell-based; conditions: antagonist mode; recombinant hC5a (EC90) as competing natural agonist; live CHO-K1 cells; read-out: [Antagonist] B-arrestin2 recruitment: Average IC50
T1 construct: β-galactosidase fragment (PathHunter enzyme complementation); host or cells: CHO-K1 (PathHunter CHO-K1 C5aR1 β-arrestin cell line)
T1 sequence (P21730 1-350): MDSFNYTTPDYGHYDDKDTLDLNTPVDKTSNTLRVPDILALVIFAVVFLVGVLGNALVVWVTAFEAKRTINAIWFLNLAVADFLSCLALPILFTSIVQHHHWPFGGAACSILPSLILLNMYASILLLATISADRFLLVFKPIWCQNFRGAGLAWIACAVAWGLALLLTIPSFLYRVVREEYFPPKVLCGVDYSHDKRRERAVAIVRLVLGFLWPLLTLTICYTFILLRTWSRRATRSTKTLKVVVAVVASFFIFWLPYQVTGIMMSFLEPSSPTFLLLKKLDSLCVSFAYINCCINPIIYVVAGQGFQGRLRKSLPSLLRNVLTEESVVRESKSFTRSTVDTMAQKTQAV
How it was run: (§1)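 Live CHO-K1 cells carry two galactosidase enzyme fragments, one fused to β-arrestin and one to C5aR1, so that β-arrestin recruitment restores enzyme activity. Agonist mode tests compounds alone. Antagonist mode tests them against recombinant hC5a at EC90, and IC50 values are reported in binned ranges.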

[2] = target: T1, complement C5a receptor 1 (C5aR1); assay: β-arrestin recruitment via C5aR1 activation in live CHO-K1 cells (PathHunter), agonist mode; type: cell-based
How it was run: as §1

| Structure (SMILES) | IC50 [1] | [Agonist] B-arrestin2 recruitment: Average EC50 (nM) ([2]; at 10 μM) | [Agonist] B-arrestin2 recruitment: Average EC50 (nM) [2] |
| --- | --- | --- | --- |
| Cc1ccc2cc([C@H]3CC[C@H](c4cnccc4C(F)(F)F)CC3)c(=O)n(Cc3ncccc3C3CC3)c2n1 [compound 248, 1-((3-Cyclopropylpyridin-2-yl)methyl)-7-methyl-3-((1r,4r)-4-(4-(trifluoromethyl)pyridin-3-yl)cyclohexyl)-1,8-naphthyridin-2(1H)-one] | < 500 nM | Non-Active at 10 μM |  |
| Cc1cnc2cc([C@H]3CC[C@H](c4cnsc4C)CC3)c(=O)n(Cc3ncccc3C(F)(F)F)c2n1 [compound 249, 3-Methyl-7-((1r,4r)-4-(5-methylisothiazol-4-yl)cyclohexyl)-5-((3-(trifluoromethyl)pyridin-2-yl)methyl)pyrido[2,3-b]pyrazin-6(5H)-one] | < 500 nM | Non-Active at 10 μM |  |
| Cc1cnc2cc([C@H]3CC[C@H](c4c(F)cccc4F)CC3)c(=O)n(Cc3ncccc3C(C)(F)F)c2n1 [compound 250, 5-((3-(1,1-Difluoroethyl)pyridin-2-yl)methyl)-7-((1r,4r)-4-(2,6-difluorophenyl)cyclohexyl)-3-methylpyrido[2,3-b]pyrazin-6(5H)-one] | < 500 nM | Non-Active at 10 μM |  |
| Cc1ccc2cc([C@H]3CC[C@H](c4cnccc4C(F)(F)F)CC3)c(=O)n(Cc3ncccc3C(F)(F)F)c2n1 [compound 251, 7-Methyl-1-((3-(trifluoromethyl)pyridin-2-yl)methyl)-3-((1r,4r)-4-(4-(trifluoromethyl)pyridin-3-yl)cyclohexyl)-1,8-naphthyridin-2(1H)-one] | < 500 nM | Non-Active at 10 μM |  |
| COc1nccc(C)c1[C@H]1CC[C@H](c2cc3ccc(C)nc3n(Cc3ncccc3C3CC3)c2=O)CC1 [compound 252, 1-((3-Cyclopropylpyridin-2-yl)methyl)-3-((1r,4r)-4-(2-methoxy-4-methylpyridin-3-yl)cyclohexyl)-7-methyl-1,8-naphthyridin-2(1H)-one] | < 500 nM | Non-Active at 10 μM |  |
| Cc1cnc2cc([C@H]3CC[C@H](c4cnsc4C)CC3)c(=O)n(Cc3ncccc3OC(F)(F)F)c2n1 [compound 253, 3-Methyl-7-[(1r,4r)-4-(5-methyl-4-isothiazolyl)cyclohexyl]-5-[(3-trifluoromethoxy-2-pyridyl)methyl]-1,4,5-triaza-6(5H)-naphthalenone] | < 500 nM |  | Non-Active |
| Cc1ccc2cc([C@H]3CC[C@H](c4cnccc4C(F)(F)F)CC3)c(=O)n(Cc3ncccc3C(C)(F)F)c2n1 [compound 254, 1-{[3-(1,1-Difluoroethyl)-2-pyridyl]methyl}-7-methyl-3-{(1r,4r)-4-[4-(trifluoromethyl)-3-pyridyl]cyclohexyl}-1,8-diaza-2(1H)-naphthalenone] | < 500 nM |  | Non-Active |
| Cc1ccc2cc([C@H]3CC[C@H](c4c(C)ccnc4F)CC3)c(=O)n(Cc3ncccc3OC(F)(F)F)c2n1 [compound 255, 7-Methyl-3-[(1r,4r)-4-(2-fluoro-4-methyl-3-pyridyl)cyclohexyl]-1-[(3-trifluoromethoxy-2-pyridyl)methyl]-1,8-diaza-2(1H)-naphthalenone] | < 500 nM |  | Non-Active |
| COc1nccc(C)c1[C@H]1CC[C@H](c2cc3ccc(C)nc3n(Cc3ncccc3C(C)(F)F)c2=O)CC1 [compound 256, 1-{[3-(1,1-Difluoroethyl)-2-pyridyl]methyl}-7-methyl-3-[(1r,4r)-4-(2-methoxy-4-methyl-3-pyridyl)cyclohexyl]-1,8-diaza-2(1H)-naphthalenone] | < 500 nM |  | Non-Active |
| Cc1ccc2cc([C@H]3CC[C@H](c4c(C)cccc4F)CC3)c(=O)n(Cc3nccnc3C3CC3)c2n1 [compound 257, 1-[(3-Cyclopropyl-2-pyrazinyl)methyl]-7-methyl-3-[(1r,4r)-4-(2-fluoro-6-tolyl)cyclohexyl]-1,8-diaza-2(1H)-naphthalenone] | < 500 nM |  | Non-Active |
| Cc1ccc2cc([C@H]3CC[C@H](c4c(C)ccnc4F)CC3)c(=O)n(Cc3ncccc3C(C)(F)F)c2n1 [compound 258, 1-((3-(1,1-difluoroethyl)pyridin-2-yl)methyl)-3-((1r,4r)-4-(2-fluoro-4-methylpyridin-3-yl)cyclohexyl)-7-methyl-1,8-naphthyridin-2(1H)-one] | < 500 nM |  | Non-Active |
| Cc1ccc2cc([C@H]3CC[C@H](c4c(C)ccnc4F)CC3)c(=O)n(Cc3ncccc3CC(F)(F)F)c2n1 [compound 259, 7-Methyl-3-[(1r,4r)-4-(2-fluoro-4-methyl-3-pyridyl)cyclohexyl]-1-{[3-(2,2,2-trifluoroethyl)-2-pyridyl]methyl}-1,8-diaza-2(1H)-naphthalenone] | < 500 nM |  | Non-Active |
| COc1nccc(C)c1[C@H]1CC[C@H](c2cc3ccc(C)nc3n(Cc3ncccc3CC(F)(F)F)c2=O)CC1 [compound 260, 7-Methyl-3-[(1r,4r)-4-(2-methoxy-4-methyl-3-pyridyl)cyclohexyl]-1-{[3-(2,2,2-trifluoroethyl)-2-pyridyl]methyl}-1,8-diaza-2(1H)-naphthalenone] | < 500 nM |  | Non-Active |
| COc1nccc(C)c1[C@H]1CC[C@H](c2cc3ccc(C)nc3n(Cc3ncccc3OC(F)(F)F)c2=O)CC1 [compound 261, 7-Methyl-3-[(1r,4r)-4-(2-methoxy-4-methyl-3-pyridyl)cyclohexyl]-1-[(3-trifluoromethoxy-2-pyridyl)methyl]-1,8-diaza-2(1H)-naphthalenone] | < 500 nM |  | Non-Active |
| Cc1ccc2cc([C@H]3CC[C@H](c4c(C)ccnc4F)CC3)c(=O)n(Cc3ncccc3C(F)(F)F)c2n1 [compound 262, 7-Methyl-3-[(1r,4r)-4-(2-fluoro-4-methyl-3-pyridyl)cyclohexyl]-1-{[3-(trifluoromethyl)-2-pyridyl]methyl}-1,8-diaza-2(1H)-naphthalenone] | < 500 nM |  | Non-Active |
| Cc1ccc2cc([C@H]3CC[C@H](c4c(C)cccc4F)CC3)c(=O)n(Cc3nccnc3OCC(F)F)c2n1 [compound 263, 1-{[3-(2,2-Difluoroethoxy)-2-pyrazinyl]methyl}-7-methyl-3-[(1r,4r)-4-(2-fluoro-6-tolyl)cyclohexyl]-1,8-diaza-2(1H)-naphthalenone] | < 500 nM |  | Non-Active |
| Cc1ccc2cc([C@H]3CC[C@H](c4c(C)cccc4F)CC3)c(=O)n(Cc3nccnc3OCC(F)(F)F)c2n1 [compound 264, 7-Methyl-3-[(1r,4r)-4-(2-fluoro-6-tolyl)cyclohexyl]-1-{[3-(2,2,2-trifluoroethoxy)-2-pyrazinyl]methyl}-1,8-diaza-2(1H)-naphthalenone] | < 500 nM |  | Non-Active |
| Cc1cnc2cc(C3CCCCC3)c(=O)n(Cc3ncccc3C(F)(F)F)c2n1 [compound 265, 7-Cyclohexyl-3-methyl-5-{[3-(trifluoromethyl)-2-pyridyl]methyl}-1,4,5-triaza-6(5H)-naphthalenone] | 500 to 5000 nM |  | Non-Active |
| Cc1cnc2cc([C@H]3CC[C@H](c4c(F)cnc5c4cnn5C)CC3)c(=O)n(Cc3ncccc3C(F)(F)F)c2n1 [compound 266, 3-Methyl-7-[(1r,4r)-4-(5-fluoro-1-methyl-1H-1,2,7-triazainden-4-yl)cyclohexyl]-5-{[3-(trifluoromethyl)-2-pyridyl]methyl}-1,4,5-triaza-6(5H)-naphthalenone] | 5000 to 100000 nM |  | Non-Active |
| Cc1cccc(F)c1[C@H]1CC[C@H](c2cc3ncc(C(C)(F)F)nc3n(Cc3ncccc3C(F)(F)F)c2=O)CC1 [compound 267, 3-(1,1-Difluoroethyl)-7-[(1r,4r)-4-(2-fluoro-6-tolyl)cyclohexyl]-5-{[3-(trifluoromethyl)-2-pyridyl]methyl}-1,4,5-triaza-6(5H)-naphthalenone] | < 500 nM |  | Non-Active |
| Cc1ccc2cc([C@H]3CC[C@H](c4c(C)cccc4F)CC3)c(=O)n(Cc3ncccc3CC(F)F)c2n1 [compound 268, 1-{[3-(2,2-Difluoroethyl)-2-pyridyl]methyl}-7-methyl-3-[(1r,4r)-4-(2-fluoro-6-tolyl)cyclohexyl]-1,8-diaza-2(1H)-naphthalenone] | < 500 nM |  | Non-Active |

— patent publication US20260317320A1, “C5AR1 ANTAGONISTS AND USES THEREOF” (Vanqua Bio, Inc., priority 2022, published 2026)
